Laboratory results from paper PMC3551756, “HIV-1 Fusion Is Blocked through Binding of GB Virus C E2D Peptides to the HIV-1 gp41 Disulfide Loop” (PLoS ONE, 2013).

Columns and labels:
[1] = test system: HIV-1 Env (NL4-3 gp160, X4env) on 293T cells; assay: HIV-1 gp160 (X4env) binding of FITC-labeled E2 peptides, flow cytometry; conditions: FITC-labeled peptides 1 µM; for binding to HIV-1 Env-expressing cells: sCD4 pretreated, 1 h 37°C, X4env- vs vector-transfected 293T cells, three independent experiments each in duplicate; for background attachment to mock- or vector-transfected cells: mock- or vector-transfected 293T cells
Procedure: 293T cells were transiently transfected with an HIV-1 Env expression vector, coding for the CXCR4-tropic NL4-3 gp160 precursor (X4env) for surface expression of gp120-gp41 Env trimers or empty plasmid as control. After 2 days of cultivation, cells were incubated with 1 µg sCD4 and 1 µM FITC-conjugated E2 peptides for 1 h at 37°C respectively. Subsequently, cells were washed, resuspended in PBS, and analyzed by flow cytometry using a BD™ LSR II flow cytometer (Becton Dickinson Biosciences, Germany). Flow cytometer data were collected with BD FACSDiva™ and analyzed with FCS Express V3. In parallel, gp160 expression was determined by staining with HIV-1 gp120 mAbs (2G12 and 17b) and an anti-human IgG-FITC pAb (Dako, Germany).
Previously, we have shown that the target of the HIV-1-inhibitory E2 peptides is most likely located on the HIV-1 particle, rather than on the cell. The surface of the HIV-1 particle consists of a lipid bilayer with incorporated host cell proteins and a limited number of functional envelope (Env) trimers (on average 14±7). Therefore, we tested whether the HIV-1-inhibitory E2 peptides interact with trimeric HIV-1 Env proteins expressed on the surface of transfected cells. For this purpose, 293T cells were transiently transfected with an HIV-1 Env expression vector, coding for the gp160 precursor of the CXCR4-tropic NL4-3 envelope (X4env). Binding of FITC-labeled E2 peptides was monitored by flow cytometry.
Figure 4 Recombinant E2_340-Fc protein and E2-derived peptides bind HIV-1 gp41. (A) 293T cells expressing NL4-3 envelope (X4env) or empty plasmid as control were incubated with sCD4 and FITC-conjugated E2 peptides, respectively. Peptide binding was analyzed by flow cytometry. Percentages illustrate the increase of cell binding to X4env-transfected cells. The increase is normalized to the background binding of E2 peptides to mock-transfected cells by calculating the RTCN value. […] (C) E2 peptides with increasing amounts were added to recombinant E2_340-Fc protein (at constant concentration) and then transferred to immobilized recombinant gp41MN.

CXCR4 = CXCR4 surface expression, flow cytometry; assay type: cell-based, human; conditions: PBMC and TZM-bl cells; E2 peptides 25 µM, SDF-1α 1 µg/ml; 6 hr; FACS; RTCN vs mock; average of two independent experiments each in triplicate
Procedure: (§1) PHA/IL-2-stimulated PBMC or TZM-bl cells were incubated with E2 peptides (25 µM), phorbol 12-myristate 13-acetate (PMA; 40 ng/ml), SDF-1α (1 µg/ml) or RANTES (50 nM) for 6 hr. CD4, CXCR4 and CCR5 surface expression was analyzed by using standard FACS staining protocols. Cells were washed with PBS and incubated for 30 min at 4°C with PE-labeled antibodies (CD4 clone SK3, CXCR4 clone 12G5, and CCR5 clone 2D7, BD Biosciences, Germany). Subsequently, washed cells were resuspended in PBS and analyzed with a FACSCalibur™ flow cytometer (BD Biosciences, Germany).
(§2) The non-HIV-1-inhibitory peptide P28 derived from the C-terminal part of E2 (residue 271 to 290), served as a negative control.
(§3) CD4, CXCR4 and CCR5 expression on PBMC (A) and TZM-bl cells (B) after preincubation with E2 peptides were determined by flow cytometry analysis. […] Percentages illustrate the ratio-to-cell-negative (RTCN) values that were calculated from the percentage of positive cells and the fluorescence intensity of peptide-incubated cells compared to mock-incubated cells. Columns show average values ±SD of two independent experiments each performed in triplicate. *: p<0.05; **: p<0.01 (mock- vs. inhibitor-incubated cells).

[2] = test system: HIV-1 NL4-3 / TZM-bl cells; assay: HIV-1 virion-based (BlaM-Vpr) virus-cell fusion assay; conditions: standard (pre-CD4 binding) and TAS (post-CD4 binding, 23°C 1 h then 37°C 2 hr); E2 peptides 20 µM, AMD-3100 10 µM, 2F5 0.5 µg/ml, b12 and B4 0.3 µg/ml; five independent experiments each in triplicate
Procedure: HIV-1 virions containing the BlaM-Vpr chimera were produced as previously described [33]. Briefly, 293T cells were co-transfected with pNL4-3 proviral DNA, pCMV-BlaM-Vpr, and pAdVAntage vectors. After 2 days of cultivation, the virus-containing supernatant was centrifuged for 10 min at 300×g to remove cellular debris. The HIV-1 virion-containing supernatant was overlaid onto a 20% sucrose cushion and ultracentrifuged at 35000×g at 4°C for 90 min. The resulting pellet was resuspended in medium and aliquots were frozen at −80°C until usage.
The virion-based fusion assay was performed essentially as described elsewhere [41]. Briefly, 5×10^4 TZM-bl cells were infected with sucrose-purified HIV-1 NL4-3 virions containing BlaM-Vpr (5 ng p24-Gag per approach). Under temperature-arrested state (TAS) conditions, binding of the HI virions to target cells was allowed at low temperature via spinning inoculation, for which virions were added to cells and centrifuged at 2095×g, 4°C for 30 min. […] BlaM activity was quantified using a fluorescence plate reader. The extent of virus-cell fusion was determined from the ratio of blue (460 nm) and green (510 nm) emission upon exciting the cells at 405 nm.
To find out whether early or late steps of HIV-1 entry are affected by the E2 peptides, the E2 peptide activity was determined before and after gp120/CD4 engagement using the Vpr-β-lactamase (Vpr-BlaM) enzyme-based virus-cell fusion assay under standard (pre-CD4 binding) and temperature-arrested state (TAS; post-CD4 binding) conditions, respectively.
The HIV-inhibitory activity of known HIV-1 entry inhibitors or respective E2 peptides was determined using a virus-cell fusion assay under standard (respective inhibitors were added simultaneously to HIV NL4-3BlaM-Vpr inoculum: pre-CD4 binding) or under TAS (temperature-arrested state) conditions (respective inhibitors were added at low temperature of 23°C for 1 h after spin-inoculation [4°C] and removal of unbound HIV-1 particles: post-CD4 binding). […] Percentages were calculated in relation to mock-treated cells. […]

CD4 = CD4 surface expression, flow cytometry; assay type: cell-based, human; conditions: PBMC and TZM-bl cells; E2 peptides 25 µM, PMA 40 ng/ml; 6 hr; FACS; RTCN vs mock; average of two independent experiments each in triplicate
Procedure: as §1, §2, §3

T32 = assay: Unspecific binding of E2 peptides to antibody T32; conditions: data not shown
[3] = target: E2_340-Fc / HIV-1 gp41MN interaction (Human immunodeficiency virus type 1 group M subtype B, UniProt P05877); assay type: binding; conditions: ELISA, immobilized gp41MN, E2_340-Fc constant (5 µg/ml), increasing peptide; three independent experiments each in duplicate
Sequence of E2_340-Fc / HIV-1 gp41MN interaction (P05877 514-856): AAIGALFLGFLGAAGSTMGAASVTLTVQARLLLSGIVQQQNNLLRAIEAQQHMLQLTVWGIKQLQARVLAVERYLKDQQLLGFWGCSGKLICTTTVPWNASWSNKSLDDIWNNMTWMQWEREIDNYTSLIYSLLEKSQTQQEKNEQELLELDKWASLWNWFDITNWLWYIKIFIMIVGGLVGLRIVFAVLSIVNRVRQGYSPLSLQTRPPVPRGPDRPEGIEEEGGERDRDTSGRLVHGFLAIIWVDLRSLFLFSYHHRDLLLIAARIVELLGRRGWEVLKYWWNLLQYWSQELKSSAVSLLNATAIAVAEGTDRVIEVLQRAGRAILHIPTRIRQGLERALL
Procedure: Flat-bottom, 96-well Microtest ELISA plates (Sarstedt, Germany) were coated overnight at 4°C with recombinant HIV-1 gp120 (0.5 µg/ml), gp41 (0.22 µg/ml) proteins, or with streptavidin (4 µg/ml) in coating buffer (0.1 M NaHCO3, 0.1 M Na2CO3, pH 9.87). Nonspecific binding was blocked (blocking buffer: 1% BSA, 0.1% Tween-20 in phosphate buffer, pH 7.2) for 1 h at room temperature, followed by washing steps (wash buffer: 0.1% Tween in phosphate buffer, pH 7.2). […] All plates were then incubated with recombinant E2_340-Fc or Fc protein in serial dilutions in sample buffer (phosphate buffer, pH 7.2) for 3 hr at room temperature. To perform the competitive ELISAs, the recombinant E2_340-Fc protein was adjusted at 5 µg/ml and the monoclonal gp41 antibodies (246-D, F240, T32, D50, 2F5, 4E10, Chessie 8 [all: NIH AIDS Research and Reference Reagent Program], and 5F3 [Polymun, Austria]) at 100 µM. After washing procedure, the plates were incubated for 1 h with polyclonal rabbit anti-human IgG peroxidase antibody (Dako, Germany) 1∶6000 in sample buffer and washed. Plates were developed with TMB peroxidase substrate solution (KPL, USA), or with OPD/H2O2 solution in the dark. Absorbances (ODs) were read at 450 or 492 nm, respectively, using a multi-channel photometer (ELISA-Reader AxSYM, Abbott Laboratory, USA).
Competitive binding of E2 and gp120 peptides (N35, N35s) with recombinant E2_340-Fc protein to immobilized recombinant gp41MN. Simultaneously to E2_340-Fc incubation peptides of E2 or gp120 were added with increasing amounts.

CC(=O)N[C@@H](CC(C)C)C(=O)N[C@@H](CS)C(=O)N[C@@H](CC(=O)O)C(=O)N[C@@H](CS)C(=O)N1CCC[C@H]1C(=O)N[C@@H](CC(N)=O)C(=O)NCC(=O)N1CCC[C@H]1C(=O)N[C@@H](Cc1c[nH]c2ccccc12)C(=O)N[C@H](C(=O)N[C@@H](Cc1c[nH]c2ccccc12)C(=O)N[C@H](C(=O)N1CCC[C@H]1C(=O)N[C@@H](C)C(=O)N[C@@H](Cc1ccccc1)C(=O)N[C@@H](CS)C(=O)N[C@@H](CCC(N)=O)C(=O)N[C@@H](C)C(=O)N[C@H](C(=O)NCC(=O)O)C(C)C)C(C)C)C(C)C [P6-2] was tested, and the “binding to HIV-1 Env-expressing cells” value [1] was “significant increase in the binding”, the “background attachment to mock- or vector-transfected cells” value [1] was “background attachment” and the CXCR4 surface presentation (CXCR4) was “no relevant effect on HIV-1 receptor presentation”. The “inhibition of virus-cell fusion, standard versus TAS conditions” value [2] was “full activity under both conditions”, the CD4 surface presentation (CD4) was “no relevant effect on HIV-1 receptor presentation” and the “unspecific binding to antibody T32” value (T32) was “No unspecific binding”. For the same compound, the “competition with E2_340-Fc for gp41 binding” value [3] was “abrogated the protein-protein interaction between HIV-1 gp41 and GBV-C E2 in a dose-dependent manner”.

In the case of “Ac-WDRGNVTLLCDCPNGPWVWV [P4-7, 20 mer peptide presenting amino acids 37 to 56 of the GBV-C E2 protein]”, the “binding to HIV-1 Env-expressing cells” value [1] is reported as “significant increase in the binding”, the “background attachment to mock- or vector-transfected cells” value [1] is reported as “background attachment” and the CXCR4 surface presentation (CXCR4) is reported as “no relevant effect on HIV-1 receptor presentation”. The “inhibition of virus-cell fusion, standard versus TAS conditions” value [2] was “full activity under both conditions”, the CD4 surface presentation (CD4) was “no relevant effect on HIV-1 receptor presentation” and the “unspecific binding to antibody T32” value (T32) was “No unspecific binding”. The “competition with E2_340-Fc for gp41 binding” value [3] was “abrogated the protein-protein interaction between HIV-1 gp41 and GBV-C E2 in a dose-dependent manner”.
